The values that follow come from publication PMC10675604, “Cetirizine and Levetiracetam as Inhibitors of Monoacylglycerol Lipase: Investigating Their Repurposing Potential as Novel Osteoarthritic Pain Therapies” (Pharmaceuticals, 2023).

The target in this assay is T1, monoacylglycerol lipase (MAGL) (Homo sapiens, UniProt Q99685).
T1 construct: gene MGLL
T1 sequence (Q99685 1-303): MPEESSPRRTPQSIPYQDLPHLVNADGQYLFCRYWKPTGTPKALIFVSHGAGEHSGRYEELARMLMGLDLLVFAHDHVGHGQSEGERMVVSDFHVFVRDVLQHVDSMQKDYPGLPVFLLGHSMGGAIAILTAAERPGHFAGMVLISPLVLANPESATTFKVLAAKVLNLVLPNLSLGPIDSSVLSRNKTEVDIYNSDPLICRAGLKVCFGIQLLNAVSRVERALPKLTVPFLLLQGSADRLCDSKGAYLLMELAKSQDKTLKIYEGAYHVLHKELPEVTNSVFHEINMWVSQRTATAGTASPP
Nature of the assay: colorimetric MAGL inhibition assay (Cayman kit […], 4-nitrophenyl acetate hydrolysis, […] nm). The assay is classed as biochemical.

As a reminder, the IC50 is the concentration at which inhibition is half-maximal.

`CC[C@@H](C(N)=O)N1CCCC1=O` [levetiracetam] came in with an IC50 of 3.01 µM.
In turn, `O=C(O)COCCN1CCN(C(c2ccccc2)c2ccc(Cl)cc2)CC1` (centres unmarked) [cetirizine] registered an IC50 of 9.39 µM.
